Data on 1 compound can be found in US6403623B1, “Heterocyclic antituberculosis agents” (Unuversity of Notre Dame du Lac, priority 1999, dated 2002).

The subject of the assay is M. tuberculosis H37R. Briefly: microbe, parasite or virus in culture. It counts as cell-based. Particulars: Mycobacterium tuberculosis, in vitro, concentration of 12.5 μg/mL, read-out: inhibition of the growth of M. tuberculosis H37R.

SMILES strings stand for the structures.

The inhibition is the share of the control response that was lost under treatment. Consider `O=C(OCc1ccccc1)[C@@H]1COC(c2ccccc2OCc2ccccc2)=N1` [Example 1, (S)-Benzyl 2-[2-(Benzyloxy)phenyl]-2-oxazoline-4-carboxylate], for which the inhibition at 12.5 µg/mL was found to be 98%.
